Source: patent US10201523B2, “Use of wilforlide A for overcoming chemotherapy resistance” (WESTERN UNIVERSITY OF HEALTH SCIENCES, priority 2013, dated 2019)
Where “and” joins values, the source holds several entries; their conditions need not be identical. Equal values may be shown once.

Tested on: Bt474-TxR
Assay: SRB cell viability assay, lapatinib with/without wilforlide A pretreatment
Type: cell-based
[1] = Lapatinib 0.067 μM, 72 h, no wilforlide A pretreatment, Table 25
[2] = Lapatinib 0.2 μM, 72 h, pretreated with 25 μg/ml wilforlide A for 2 h, Table 26
[3] = Lapatinib 0.67 μM, 72 h, no wilforlide A pretreatment, Table 27
[4] = Lapatinib 0.67 μM, 72 h, pretreated with 25 μg/ml wilforlide A for 2 h, Table 26
[5] = Lapatinib 2.0 μM, 72 h, no wilforlide A pretreatment, Table 25
[6] = Lapatinib 2.0 μM, 72 h, no wilforlide A pretreatment, Table 27
[7] = Lapatinib 2.0 μM, 72 h, pretreated with 25 μg/ml wilforlide A for 2 h, Table 26
[8] = Lapatinib 6.7 μM, 72 h, no wilforlide A pretreatment, Table 25
[9] = Lapatinib 6.7 μM, 72 h, no wilforlide A pretreatment, Table 27
[10] = Lapatinib 6.7 μM, 72 h, pretreated with 25 μg/ml wilforlide A for 2 h, Table 26
[11] = Lapatinib 20 μM, 72 h, no wilforlide A pretreatment, Table 25
[12] = Lapatinib 20 μM, 72 h, no wilforlide A pretreatment, Table 27
[13] = Lapatinib 20 μM, 72 h, pretreated with 25 μg/ml wilforlide A for 2 h, Table 26

CS(=O)(=O)CCNCc1ccc(-c2ccc3ncnc(Nc4ccc(OCc5cccc(F)c5)c(Cl)c4)c3c2)o1 [lapatinib]
viability at 0.001 µM (72 h, Bt474-TxR, wilforlide A 2.5 μg/ml pre-Tx, lapatinib 0.001 μM 72 h): 100%
viability at 0.01 µM (72 h, Bt474-TxR, wilforlide A 2.5 μg/ml pre-Tx, lapatinib 0.01 μM 72 h): 103%
viability at 0.067 µM (72 h, Bt474-TxR, wilforlide A 2.5 μg/ml pre-Tx, lapatinib 0.067 μM 72 h): 96.1%
viability at 0.2 µM (72 h, Bt474-TxR, wilforlide A 2.5 μg/ml pre-Tx, lapatinib 0.2 μM 72 h): 84.8%
viability at 0.67 µM (72 h, Bt474-TxR, wilforlide A 2.5 μg/ml pre-Tx, lapatinib 0.67 μM 72 h): 76%
viability at 2 µM (72 h, Bt474-TxR, wilforlide A 2.5 μg/ml pre-Tx, lapatinib 2.0 μM 72 h): 67.4%
viability at 6.7 µM (72 h, Bt474-TxR, wilforlide A 2.5 μg/ml pre-Tx, lapatinib 6.7 μM 72 h): 70.2%
viability at 20 µM (72 h, Bt474-TxR, wilforlide A 2.5 μg/ml pre-Tx, lapatinib 20 μM 72 h): 60.9%
mean A (Bt474-TxR, wilforlide A 2.5 μg/ml pre-Tx, lapatinib 0.001 μM 72 h): 1.260
A at 565 nm (Bt474-TxR, wilforlide A 2.5 μg/ml pre-Tx, lapatinib 0.001 μM 72 h, background = 0.045): 1.301 and 1.370
mean A (Bt474-TxR, wilforlide A 2.5 μg/ml pre-Tx, lapatinib 0.01 μM 72 h): 1.293
A at 565 nm (Bt474-TxR, wilforlide A 2.5 μg/ml pre-Tx, lapatinib 0.01 μM 72 h, background = 0.045): 1.309 and 1.368
A at 565 nm (Bt474-TxR, wilforlide A 2.5 μg/ml pre-Tx, lapatinib 0.067 μM 72 h, background = 0.045): 1.297
mean A (Bt474-TxR, wilforlide A 2.5 μg/ml pre-Tx, lapatinib 0.67 μM 72 h): 0.957
A at 565 nm (Bt474-TxR, wilforlide A 2.5 μg/ml pre-Tx, lapatinib 0.67 μM 72 h, background = 0.045): 0.898 and 0.975
mean A (Bt474-TxR, wilforlide A 2.5 μg/ml pre-Tx, lapatinib 2.0 μM 72 h): 0.849
A at 565 nm (Bt474-TxR, wilforlide A 2.5 μg/ml pre-Tx, lapatinib 2.0 μM 72 h, background = 0.045): 0.895 and 0.791 and 0.861
mean A (Bt474-TxR, wilforlide A 2.5 μg/ml pre-Tx, lapatinib 6.7 μM 72 h): 0.884
A at 565 nm (Bt474-TxR, wilforlide A 2.5 μg/ml pre-Tx, lapatinib 6.7 μM 72 h, background = 0.045): 0.947 and 0.814 and 0.893
mean A (Bt474-TxR, wilforlide A 2.5 μg/ml pre-Tx, lapatinib 20 μM 72 h): 0.768
A at 565 nm (Bt474-TxR, wilforlide A 2.5 μg/ml pre-Tx, lapatinib 20 μM 72 h, background = 0.045): 0.798 and 0.689 and 0.817
viability at 0.001 µM (Lapatinib 0.001 μM, 72 h, no wilforlide A pretreatment, Table 25): 100%
A at 565 nm (Lapatinib 0.001 μM, 72 h, no wilforlide A pretreatment, Table 25, background = 0.045): 1.272 and 1.341
viability at 0.001 µM (Lapatinib 0.001 μM, 72 h, no wilforlide A pretreatment, Table 27): 100%
viability at 0.001 µM (Lapatinib 0.001 μM, 72 h, pretreated with 25 μg/ml wilforlide A for 2 h, Table 26): 100%
mean A (Lapatinib 0.01 μM, 72 h, no wilforlide A pretreatment, Table 25): 1.338
A at 565 nm (Lapatinib 0.01 μM, 72 h, no wilforlide A pretreatment, Table 25, background = 0.045): 1.352 and 1.344 and 1.318
viability at 0.01 µM (Lapatinib 0.01 μM, 72 h, no wilforlide A pretreatment, Table 27): 99.5%
viability at 0.01 µM (Lapatinib 0.01 μM, 72 h, pretreated with 25 μg/ml wilforlide A for 2 h, Table 26): 96.2%
mean A [1]: 1.304
viability at 0.067 µM [1]: 105%
A at 565 nm (Lapatinib 0.067 μM, 72 h, no wilforlide A pretreatment, Table 25, background = 0.045): 1.320 and 1.343
viability at 0.067 µM (Lapatinib 0.067 μM, 72 h, no wilforlide A pretreatment, Table 27): 98.7%
viability at 0.067 µM (Lapatinib 0.067 μM, 72 h, pretreated with 25 μg/ml wilforlide A for 2 h, Table 26): 94.6%
viability at 0.2 µM (Lapatinib 0.2 μM, 72 h, no wilforlide A pretreatment, Table 25): 92.8%
viability at 0.2 µM (Lapatinib 0.2 μM, 72 h, no wilforlide A pretreatment, Table 27): 94%
mean A [2]: 0.994
viability at 0.2 µM [2]: 86.6%
A at 565 nm (Lapatinib 0.2 μM, 72 h, pretreated with 25 μg/ml wilforlide A for 2 h, Table 26, background = 0.047): 0.963
viability at 0.67 µM (Lapatinib 0.67 μM, 72 h, no wilforlide A pretreatment, Table 25): 87%
mean A [3]: 0.994
viability at 0.67 µM [3]: 85%
A at 565 nm (Lapatinib 0.67 μM, 72 h, no wilforlide A pretreatment, Table 27, background = 0.047): 0.955
mean A [4]: 0.872
viability at 0.67 µM [4]: 76%
A at 565 nm (Lapatinib 0.67 μM, 72 h, pretreated with 25 μg/ml wilforlide A for 2 h, Table 26, background = 0.047): 0.813 and 0.937 and 0.865
mean A [5]: 0.987
viability at 2 µM [5]: 79.1%
A at 565 nm (Lapatinib 2.0 μM, 72 h, no wilforlide A pretreatment, Table 25, background = 0.045): 0.951
mean A [6]: 0.831
viability at 2 µM [6]: 71%
A at 565 nm (Lapatinib 2.0 μM, 72 h, no wilforlide A pretreatment, Table 27, background = 0.047): 0.887 and 0.809 and 0.797
mean A [7]: 0.832
viability at 2 µM [7]: 72.5%
A at 565 nm (Lapatinib 2.0 μM, 72 h, pretreated with 25 μg/ml wilforlide A for 2 h, Table 26, background = 0.047): 0.876 and 0.831 and 0.789
mean A [8]: 0.925
viability at 6.7 µM [8]: 74.2%
A at 565 nm (Lapatinib 6.7 μM, 72 h, no wilforlide A pretreatment, Table 25, background = 0.045): 0.926 and 0.823
mean A [9]: 0.795
viability at 6.7 µM [9]: 68%
A at 565 nm (Lapatinib 6.7 μM, 72 h, no wilforlide A pretreatment, Table 27, background = 0.047): 0.866 and 0.798 and 0.722
mean A [10]: 0.729
viability at 6.7 µM [10]: 63.5%
A at 565 nm (Lapatinib 6.7 μM, 72 h, pretreated with 25 μg/ml wilforlide A for 2 h, Table 26, background = 0.047): 0.663 and 0.737 and 0.787
mean A [11]: 0.876
viability at 20 µM [11]: 70.2%
A at 565 nm (Lapatinib 20 μM, 72 h, no wilforlide A pretreatment, Table 25, background = 0.045): 0.911 and 0.914 and 0.803
mean A [12]: 0.746
viability at 20 µM [12]: 63.8%
A at 565 nm (Lapatinib 20 μM, 72 h, no wilforlide A pretreatment, Table 27, background = 0.047): 0.807 and 0.697 and 0.735
mean A [13]: 0.587
viability at 20 µM [13]: 51.2%
A at 565 nm (Lapatinib 20 μM, 72 h, pretreated with 25 μg/ml wilforlide A for 2 h, Table 26, background = 0.047): 0.530 and 0.655 and 0.577
